Results as given in the NIST ThermoML archive (doi:10.1016/j.jct.2008.12.010).
± gives the expanded uncertainty stated by the source.

Test: xn = mol fraction of the nth substance listed
Settings: Liquid; for speed of sound: Linear variable-path acoustic interferometer; for mass density: Vibrating tube method

CCOC(=O)OCC [diethyl carbonate] + Cc1ccc(C)cc1
Settings | mass density [kg/m3] | speed of sound [m/s]
298.15 K, x1 = 0.05081 | 862.33 ± 0.23 | –
298.15 K, x1 = 0.1564 | 874.2 ± 0.22 | –
298.15 K, x1 = 0.2581 | 885.6 ± 0.21 | –
298.15 K, x1 = 0.3052 | 890.87 ± 0.2 | –
298.15 K, x1 = 0.4021 | 901.73 ± 0.19 | –
298.15 K, x1 = 0.4941 | 912.05 ± 0.18 | 1239.7 ± 1.8
298.15 K, x1 = 0.5014 | 912.87 ± 0.18 | 1238.7 ± 1.8
298.15 K, x1 = 0.5966 | 923.58 ± 0.17 | 1226 ± 1.8
298.15 K, x1 = 0.6896 | 934.06 ± 0.16 | 1213.8 ± 1.8
298.15 K, x1 = 0.7459 | 940.42 ± 0.16 | 1206.7 ± 1.7
298.15 K, x1 = 0.8987 | 957.7 ± 0.15 | 1188.4 ± 1.7
298.15 K, x1 = 0.9492 | 963.41 ± 0.14 | 1182.6 ± 1.7
303.15 K, x1 = 0.05001 | 857.79 ± 0.23 | 1280.6 ± 1.9
303.15 K, x1 = 0.09883 | 863.2 ± 0.23 | 1274 ± 1.9
303.15 K, x1 = 0.1971 | 874.11 ± 0.22 | 1260.3 ± 1.9
303.15 K, x1 = 0.3068 | 886.26 ± 0.2 | 1245 ± 1.8
303.15 K, x1 = 0.3908 | 895.57 ± 0.19 | 1233.2 ± 1.8
303.15 K, x1 = 0.499 | 907.57 ± 0.18 | 1218.4 ± 1.8
303.15 K, x1 = 0.5482 | 913.03 ± 0.18 | 1211.7 ± 1.8
303.15 K, x1 = 0.6011 | 918.91 ± 0.17 | 1204.7 ± 1.8
303.15 K, x1 = 0.6472 | 924.05 ± 0.17 | 1198.6 ± 1.8
303.15 K, x1 = 0.6979 | 929.7 ± 0.16 | 1192.1 ± 1.7
303.15 K, x1 = 0.7962 | 940.68 ± 0.16 | 1179.8 ± 1.7
303.15 K, x1 = 0.9007 | 952.41 ± 0.15 | 1167.4 ± 1.7
303.15 K, x1 = 0.951 | 958.07 ± 0.14 | 1161.6 ± 1.7
308.15 K, x1 = 0.09736 | 858.51 ± 0.23 | 1253.3 ± 1.9
308.15 K, x1 = 0.2045 | 870.25 ± 0.21 | 1238.5 ± 1.9
308.15 K, x1 = 0.2963 | 880.29 ± 0.2 | 1225.7 ± 1.8
308.15 K, x1 = 0.4046 | 892.15 ± 0.19 | 1210.4 ± 1.8
308.15 K, x1 = 0.4955 | 902.1 ± 0.18 | 1197.8 ± 1.8
308.15 K, x1 = 0.5478 | 907.85 ± 0.18 | 1190.9 ± 1.8
308.15 K, x1 = 0.6058 | 914.21 ± 0.17 | 1183.1 ± 1.8
308.15 K, x1 = 0.657 | 919.84 ± 0.17 | 1176.5 ± 1.7
308.15 K, x1 = 0.6936 | 923.87 ± 0.17 | 1171.9 ± 1.7
308.15 K, x1 = 0.7468 | 929.74 ± 0.16 | 1165.2 ± 1.7
308.15 K, x1 = 0.8022 | 935.86 ± 0.16 | 1158.4 ± 1.7
308.15 K, x1 = 0.9035 | 947.12 ± 0.15 | 1146.5 ± 1.7
